Source: US8551956B2, “Compositions containing peptides with non-natural amino acids and methods of use” (Avon Products, Inc., priority 2006, dated 2013)

Test system: Fibronectin
Assay: Stimulation of fibronectin production in Normal Human Dermal Fibroblasts-Adult, competitive inhibition ELISA of conditioned medium
Format: cell-based
Conditions: in vitro, concentration not given
Protocol: Normal Human Dermal Fibroblasts-Adult (Cascade Biologics) were cultured in 12-well tissue culture treated plates and treated for 72 hours in the presence or absence of test actives. Following incubation, the conditioned medium from each treatment was collected in a 1.7 mL microcentrifuge tube and frozen at −80° C. for subsequent analysis. The assay was in the format of a competitive inhibition ELISA.
Human fibronectin was pre-coated on the wells except for one row, which served as a reference. Standards and samples were pre-incubated with polyclonal rabbit antibody to human fibronectin. The polyclonal antibody was bound to the fibronectin in the standard dilutions, and in the sample, if present. The mixture was then transferred to the human fibronectin-coated plate. Free rabbit anti-human fibronectin was bound to the fibronectin on the plate. Goat anti-rabbit IgG HRP-conjugate reacted with bound rabbit anti-fibronectin. When HRP substrate was added, a blue color developed. The reaction was stopped by the addition of an acid, changing the color to yellow. This color was quantitated using a microplate reader set at 450 nm. The intensity of the color was inversely proportional to the amount of fibronectin in the original sample.

## NCCCC[C@H](N)C(=O)NCCCCC(=O)NCCCC[C@H](N)C(=O)O [KavaK]
  Fibronectin production, more compared to untreated control fibroblasts: 28%
